# Data taken from patent US8785488B2 (Exelixis Patent Company LLC, priority 2009, dated 2014).
# Target: T1, human TGR5 (h-TGR5) (Homo sapiens, UniProt Q8TDU6)
# T1 construct: expressed in transfected cells
# T1 sequence (Q8TDU6 1-330): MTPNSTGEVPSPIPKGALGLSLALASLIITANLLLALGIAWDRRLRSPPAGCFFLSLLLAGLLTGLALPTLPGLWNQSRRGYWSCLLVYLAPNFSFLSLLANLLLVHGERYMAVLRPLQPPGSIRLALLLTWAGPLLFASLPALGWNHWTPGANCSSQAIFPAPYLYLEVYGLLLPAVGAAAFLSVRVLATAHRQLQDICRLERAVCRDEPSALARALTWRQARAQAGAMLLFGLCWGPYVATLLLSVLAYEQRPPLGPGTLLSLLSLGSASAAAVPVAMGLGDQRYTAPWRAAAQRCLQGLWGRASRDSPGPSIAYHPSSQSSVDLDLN
# Test: TGR5/CRE-Luciferiase Assay (HEK 293 hTGR5/CRE-Luc cells)
# Type: cell-based
# Conditions: h-TGR5 CRE-Luc EC50, Table 1; read-out: CRE-Luc (EC50)
# Protocol: Compounds were serially diluted in DMEM containing 5% DMSO and 5 μL of compound or media alone was transferred to each well and plates were incubated for 6 hours. Following incubation, 30 μL of lysis/luciferase buffer was added to each well. The luciferase activity was then measured on the EnVision™ plate reader and the dose response data was analyzed using ActivityBase.
# In the following tables, EC50 values determined according to the TGR5 cAMP Assay described herein (cAMP); EC50 values determined according to the TGR5/CRE-Luciferiase Assay described herein (CRE-Luc). […] The following compounds in Tables 1 and 2 were made by using procedures described in the above Schemes and Examples, and, where applicable, by making any necessary substitutions of known materials that one skilled in the art would ordinarily understand how to do.
row,EC50,Molecule
1,< 100 nM,COc1c(Cl)cc(C(C)(C)c2cnc(SCc3ccc(F)cc3Cl)n2-c2ccc(F)cc2)cc1Cl
2,1000 to 10000 nM,CC(C)(C)OC(=O)N1CCC(NCc2ncc(C(C)(C)c3ccc(Cl)c(Cl)c3)n2-c2ccc(F)cc2)CC1
3,100 to 1000 nM,"CC(C)(C)OC(=O)N1CCC(CSc2ncc(C(C)(C)c3ccc(Cl)c(Cl)c3)n2-c2ccc(F)cc2)C1 (centres unmarked) [1,1-dimethylethyl 3-[({5-[1-(3,4-dichlorophenyl)-1-methylethyl]-1-(4-fluorophenyl)-1H-imidazol-2-yl}thio)methyl]pyrrolidine-1-carboxylate]"
4,1000 to 10000 nM,"CC(C)(C)OC(=O)N1CCC(OCc2ncc(C(C)(C)c3ccc(Cl)c(Cl)c3)n2-c2ccc(F)cc2)CC1 [1,1-dimethylethyl 4-[({5-[1-(3,4-dichlorophenyl)-1-methylethyl]-1-(4-fluorophenyl)-1H-imidazol-2-yl}methyl)oxy]piperidine-1-carboxylate]"
5,100 to 1000 nM,"CC(C)(C)OC(=O)N1CCC(CSc2ncc(C(C)(C)c3ccc(F)c(F)c3)n2-c2ccc(F)cc2)CC1 [1,1-dimethylethyl 4-[({5-[1-(3,4-difluorophenyl)-1-methylethyl]-1-(4-fluorophenyl)-1H-imidazol-2-yl}thio)methyl]piperidine-1-carboxylate]"
6,1000 to 10000 nM,"CC(C)(c1ccc(Cl)c(Cl)c1)c1cnc(S(=O)(=O)Cc2c(F)cccc2Cl)n1-c1ccc(F)cc1Cl [1-(2-chloro-4-fluorophenyl)-2-{[(2-chloro-6-fluorophenyl)methyl]sulfonyl}-5-[1-(3,4-dichlorophenyl)-1-methylethyl]-1H-imidazole]"
7,100 to 1000 nM,"CC(C)(c1ccc(Cl)c(Cl)c1)c1cnc(SCc2c(F)cccc2Cl)n1-c1ccc(F)cc1Cl [1-(2-chloro-4-fluorophenyl)-2-{[(2-chloro-6-fluorophenyl)methyl]thio}-5-[1-(3,4-dichlorophenyl)-1-methylethyl]-1H-imidazole]"
8,< 100 nM,"CC(C)(c1ccc(Cl)c(Cl)c1)c1cnc(SCc2c(F)cccc2Cl)n1-c1ccc(F)c(Cl)c1 [1-(3-chloro-4-fluorophenyl)-2-{[(2-chloro-6-fluorophenyl)methyl]thio}-5-[1-(3,4-dichlorophenyl)-1-methylethyl]-1H-imidazole]"
9,100 to 1000 nM,"CC(C)(c1ccc(Cl)c(Cl)c1)c1cnc(SCc2c(F)cccc2Cl)n1-c1ccc(Cl)cc1F [1-(4-chloro-2-fluorophenyl)-2-{[(2-chloro-6-fluorophenyl)methyl]thio}-5-[1-(3,4-dichlorophenyl)-1-methylethyl]-1H-imidazole]"
10,100 to 1000 nM,"CC(C)(c1ccc(Cl)c(Cl)c1)c1cnc(SCc2c(F)cccc2Cl)n1-c1ccc(Cl)c(F)c1 [1-(4-chloro-3-fluorophenyl)-2-{[(2-chloro-6-fluorophenyl)methyl]thio}-5-[1-(3,4-dichlorophenyl)-1-methylethyl]-1H-imidazole]"
11,100 to 1000 nM,"CC(C)(O)COc1cc(F)ccc1CSc1ncc(C(C)(C)c2ccc(Cl)c(Cl)c2)n1-c1ccc(F)cc1 [1-({2-[({5-[1-(3,4-dichlorophenyl)-1-methylethyl]-1-(4-fluorophenyl)-1H-imidazol-2-yl}thio)methyl]-5-fluorophenyl}oxy)-2-methylpropan-2-ol]"
12,1000 to 10000 nM,"CC1CCc2cc(F)ccc2N1S(=O)(=O)c1ncc(C(C)(C)c2ccc(Cl)c(Cl)c2)n1-c1ccc(F)cc1 (centres unmarked) [1-({5-[1-(3,4-dichlorophenyl)-1-methylethyl]-1-(4-fluorophenyl)-1H-imidazol-2-yl}sulfonyl)-6-fluoro-2-methyl-1,2,3,4-tetrahydroquinoline]"
13,100 to 1000 nM,"CC(C)(O)COc1cc(CSc2ncc(C(C)(C)c3ccc(Cl)c(Cl)c3)n2-c2ccc(F)cc2)ccc1F [1-({5-[({5-[1-(3,4-dichlorophenyl)-1-methylethyl]-1-(4-fluorophenyl)-1H-imidazol-2-yl}thio)methyl]-2-fluorophenyl}oxy)-2-methylpropan-2-ol]"
14,< 100 nM,"COc1ccc(C(C)(C)c2cnc(CNCc3c(F)cccc3Cl)n2-c2ccc(F)cc2)cc1OC [1-[5-{1-[3,4-bis(methyloxy)phenyl]-1-methylethyl}-1-(4-fluorophenyl)-1H-imidazol-2-yl]-N-[(2-chloro-6-fluorophenyl)methyl]methanamine]"
15,< 100 nM,"COc1ccc(C(C)(C)c2cnc(CNCc3ccc(Cl)c(F)c3)n2-c2ccc(F)cc2)cc1OC [1-[5-{1-[3,4-bis(methyloxy)phenyl]-1-methylethyl}-1-(4-fluorophenyl)-1H-imidazol-2-yl]-N-[(4-chloro-3-fluorophenyl)methyl]methanamine]"
16,100 to 1000 nM,CC(C)(O)COc1ccc(C(C)(C)c2cnc(SCc3ccc(F)cc3Cl)n2-c2ccc(F)cc2)cc1Cl [1-[(2-chloro-4-{1-[2-{[(2-chloro-4-fluorophenyl)methyl]thio}-1-(4-fluorophenyl)-1H-imidazol-5-yl]-1-methylethyl}phenyl)oxy]-2-methylpropan-2-ol]
17,100 to 1000 nM,CC(C)(O)COc1cc(C(C)(C)c2cnc(SCc3c(F)cccc3Cl)n2-c2ccc(F)cc2)ccc1Cl [1-[(2-chloro-5-{1-[2-{[(2-chloro-6-fluorophenyl)methyl]thio}-1-(4-fluorophenyl)-1H-imidazol-5-yl]-1-methylethyl}phenyl)oxy]-2-methylpropan-2-ol]
18,1000 to 10000 nM,"CN1CCN(c2ccc(CSc3ncc(C(C)(C)c4ccc(Cl)c(Cl)c4)n3-c3ccc(F)cc3)cc2Cl)CC1 [1-{2-chloro-4-[({5-[1-(3,4-dichlorophenyl)-1-methylethyl]-1-(4-fluorophenyl)-1H-imidazol-2-yl}thio)methyl]phenyl}-4-methylpiperazine]"
19,1000 to 10000 nM,"CC(=O)c1ccc(OCc2ncc(C(C)(C)c3ccc(Cl)c(Cl)c3)n2-c2ccc(F)cc2)c(Cl)c1 [1-{3-chloro-4-[({5-[1-(3,4-dichlorophenyl)-1-methylethyl]-1-(4-fluorophenyl)-1H-imidazol-2-yl}methyl)oxy]phenyl}ethanone]"
20,100 to 1000 nM,"CN1CCN(c2ccc(CSc3ncc(C(C)(C)c4ccc(Cl)c(Cl)c4)n3-c3ccc(F)cc3)cc2F)CC1 [1-{4-[({5-[1-(3,4-dichlorophenyl)-1-methylethyl]-1-(4-fluorophenyl)-1H-imidazol-2-yl}thio)methyl]-2-fluorophenyl}-4-methylpiperazine]"
21,1000 to 10000 nM,"CN1CCN(c2cc(CSc3ncc(C(C)(C)c4ccc(Cl)c(Cl)c4)n3-c3ccc(F)cc3)ccc2F)CC1 [1-{5-[({5-[1-(3,4-dichlorophenyl)-1-methylethyl]-1-(4-fluorophenyl)-1H-imidazol-2-yl}thio)methyl]-2-fluorophenyl}-4-methylpiperazine]"
22,100 to 1000 nM,"CC(C)(c1ccc(Cl)c(Cl)c1)c1cnc(SCc2ccc(F)c(NC(=N)N)c2)n1-c1ccc(F)cc1 [1-{5-[({5-[1-(3,4-dichlorophenyl)-1-methylethyl]-1-(4-fluorophenyl)-1H-imidazol-2-yl}thio)methyl]-2-fluorophenyl}guanidine]"
23,100 to 1000 nM,CC(C)(O)c1ccc(C(C)(C)c2cnc(SCc3ccc(F)cc3Cl)n2-c2ccc(F)cc2)cc1Cl [2-(2-chloro-4-{1-[2-{[(2-chloro-4-fluorophenyl)methyl]thio}-1-(4-fluorophenyl)-1H-imidazol-5-yl]-1-methylethyl}phenyl)propan-2-ol]
24,1000 to 10000 nM,"CN(C)CCn1c(C(C)(C)c2ccc(Cl)c(Cl)c2)cnc1SCc1c(F)cccc1Cl [2-(2-{[(2-chloro-6-fluorophenyl)methyl]thio}-5-[1-(3,4-dichlorophenyl)-1-methylethyl]-1H-imidazol-1-yl)-N,N-dimethylethanamine]"
25,100 to 1000 nM,"CC(C)(c1ccc(Cl)c(Cl)c1)c1cnc(SCc2c(F)cccc2Cl)n1CCO [2-(2-{[(2-chloro-6-fluorophenyl)methyl]thio}-5-[1-(3,4-dichlorophenyl)-1-methylethyl]-1H-imidazol-1-yl)ethanol]"
26,1000 to 10000 nM,"CC(C)(Oc1cc(F)ccc1CSc1ncc(C(C)(C)c2ccc(Cl)c(Cl)c2)n1-c1ccc(F)cc1)C(=O)O [2-({2-[({5-[1-(3,4-dichlorophenyl)-1-methylethyl]-1-(4-fluorophenyl)-1H-imidazol-2-yl}thio)methyl]-5-fluorophenyl}oxy)-2-methylpropanoic acid]"
27,100 to 1000 nM,"CCN(CC)CCOc1ccc(CSc2ncc(C(C)(C)c3ccc(Cl)c(Cl)c3)n2-c2ccc(F)cc2)cc1-c1nnn[nH]1 [2-({4-[({5-[1-(3,4-dichlorophenyl)-1-methylethyl]-1-(4-fluorophenyl)-1H-imidazol-2-yl}thio)methyl]-2-(1H-tetrazol-5-yl)phenyl}oxy)-N,N-diethylethanamine]"
28,100 to 1000 nM,"CC(C)(Oc1cc(CSc2ncc(C(C)(C)c3ccc(Cl)c(Cl)c3)n2-c2ccc(F)cc2)ccc1F)C(=O)O [2-({5-[({5-[1-(3,4-dichlorophenyl)-1-methylethyl]-1-(4-fluorophenyl)-1H-imidazol-2-yl}thio)methyl]-2-fluorophenyl}oxy)-2-methylpropanoic acid]"

row,Molecule,EC50
1,2-chloro-5-{1-[2-{(2-chloro-4- fluorophenyl)methyl]thio}-1-(4-fluorophenyl)- 1H-imidazol-5-yl]-1- methylethyl}benzenesulfonamide,100 to 1000 nM
